Data taken from patent US20230096663A1, “FARNESOID X RECEPTOR MODULATING COMPOUNDS AND METHODS OF USING THE SAME” (Inorbit Therapeutics AB, priority 2020, published 2023).
Where two headings read alike, the source gives them in different places.

Tests used:
[1] = test system: FXR related genes (BSEP, SHP) in primary human hepatocytes; assay: Gene expression in human primary hepatocytes (BSEP, SHP); format: cell-based; conditions: 24 hours incubation
Procedure: The test compound was dissolved in buffer to give a 10 mM stock solution. The compound was serially diluted to the desired concentrations and then incubated with human primary hepatocytes for 24 hours at 37° C. in a CO2 incubator. After incubation, the media was removed and the RNA harvested using the Trizol-CHCl3 method and quantified using Nano drop. The RNA was then Reverse Transcribed to cDNA using a superscript vilo cDNA synthesis kit. The cDNA with respective Taqman primers, master mix are then amplified using quantitative RT-PCR system. […] The compounds of examples 2 and 3 upregulate FXR related and disease relevant genes on incubation with primary human hepatocytes. […] It is a uni-directional, ATP-dependent efflux transporter that plays an important role in the elimination of bile salts from the hepatocyte into the bile canaliculi for export into the gastrointestinal tract. FXR also induces the expression of small heterodimer partner (SHP) which controls a complex set of genes in multiple metabolic pathways. It reduces the expression of CYP7A1, a liver-specific enzyme that catalyzes the first and rate-limiting step in one of the two pathways for bile acid biosynthesis.

[2] = test system: HFHC fed male C57BL/6 mice; assay: In-vivo efficacy in high fat high cholesterol diet (HFHC) fed male C57BL/6 mice; conditions: oral, 3 mg/kg BID, 3 mg/kg QD and 10 mg/kg BID, after 28 days
Procedure: C57BL/6J male mice were purchased at the age of 8 weeks. After an acclimation period of 1 week, animals were maintained on high fat high cholesterol diet (Research diets) with 60% kcal from fat plus 0.5% (w/w) extra cholesterol (Research diet, D02051401) for a period of 4 weeks. Age matched control animals (n=6) were maintained on normal chow. Mice were dosed with vehicle, test compounds and GW4064 morning (7.00 AM) and evening (5:00 PM) from day 0 to 27. At 28th day, animals were dosed at 7:00 AM and kept on fasting for next 4 hours before blood and tissues collection. Plasma samples separated from collected blood were stored at −20° C. immediately for estimation analysis. The samples were analyzed using the Siemens Dimension RxL Max Clinical chemistry analyzer.
Right liver lobe was used for the test compounds exposure, triglyceride and cholesterol estimation. Liver tissues were dissected, weighed and snap frozen and stored at −80° C. for further analysis of hepatic triglyceride, cholesterol and compound exposure. In brief, stored tissues were thawed to room temperature and triglycerides were extracted by homogenizing 25 mg of liver tissues in 1 ml of 5% Triton X100 (Lot No. 61K01741-Sigma Aldrich) in water. Homogenized tissues were slowly heated to 80° C. in water bath for 5 minutes. The samples were cooled down and again heated to solubilize all the triglycerides into solution. The samples were centrifuged for 5 minutes at 4000 RPM and supernatant was collected for quantification^3 using commercially available kit from ERBA (Lot No. B061832).
Homogenized samples were centrifuge at 13000 g for 10 minutes to remove insoluble material. The organic phase was separated into new tube and air dried at 50° C. to remove chloroform. Thereafter, samples were vacuumed for 30 minutes to remove residue organic solvent. Dried lipids were dissolved in 200 μL of cholesterol assay buffer (provided with Sigma cholesterol assay kit Lot No. B2J210603V), sonicated for 20 minutes and vortexed until mixture was homogenous as mentioned in kit protocol. Samples were diluted with cholesterol assay buffer at (1:10) ratio to fit in standard curve and finally 50 μL of diluted samples were used for the assay.
Compound levels were also measured in the plasma and liver to understand its distribution profile.

[3] = Compound exposure in plasma and liver of HFHC fed male mice; format: in vivo; conditions: C57BL/6J, mouse, oral

For `Cc1cc(S(=O)[O-])cc2sc(N3[C@@H]4CC[C@H]3C[C@@H](OCc3c(-c5ccccc5OC(F)(F)F)noc3C3CC3)C4)nc12.[Na+]` [Example 3, Sodium 2-(3-((5-cyclopropyl-3-(2-(trifluoromethoxy)phenyl)isoxazol-4-yl)methoxy)-8-azabicyclo[3.2.1]octan-8-yl)-4-methylbenzo[d]thiazole-6-sulfinate], the “Expression of FXR related and disease relevant genes (BSEP, SHP)” value [1] was “upregulate”, the “Cholesterol levels in the liver” value [2] was “reductions” and the “Cholesterol levels in the plasma” value [2] was “reductions”. For the same molecule, the Liver triglycerides [2] was “reductions”, the concentration at 4 h ([3]; liver, 3 mg/kg, 3 mg/kg BID oral, 4 hours after last dose on day 28, read-out: Mean compound exposure, Liver) was 88.9 ng/g and the concentration at 4 h ([3]; liver, 10 mg/kg, 10 mg/kg BID oral, 4 hours after last dose on day 28, read-out: Mean compound exposure, Liver) was 198 ng/g. It also gave a concentration at 4 h ([3]; liver, 10 mg/kg, 10 mg/kg QD oral, 4 hours after last dose on day 28, read-out: Mean compound exposure, Liver) of 176 ng/g, a concentration at 4 h ([3]; plasma, 3 mg/kg, 3 mg/kg BID oral, 4 hours after last dose on day 28, read-out: Mean compound exposure, Plasma) of 3.7 ng/mL and a concentration at 4 h ([3]; plasma, 10 mg/kg, 10 mg/kg BID oral, 4 hours after last dose on day 28, read-out: Mean compound exposure, Plasma) of 11.5 ng/mL. For the same molecule, the concentration at 4 h ([3]; plasma, 10 mg/kg, 10 mg/kg QD oral, 4 hours after last dose on day 28, read-out: Mean compound exposure, Plasma) was 5.9 ng/mL.
